Results: the NIST ThermoML archive (doi:10.1021/je049762q)

Experiment: molar heat capacity at constant pressure
Conditions: 101.33 kPa, Crystal 3

Clc1ccc(Cl)cc1 [1,4-dichlorobenzene]
Conditions | molar heat capacity at constant pressure [J/K/mol]
5.11 K | 0.29
6.43 K | 0.42
7.21 K | 0.83
7.89 K | 1.18
9.58 K | 2.1
10 K | 2.33
11.66 K | 3.22
13.08 K | 4.5
14.5 K | 6.12
15 K | 6.7
15.94 K | 7.81
18.49 K | 10.86
19 K | 11.19
20 K | 12.69
20.21 K | 12.96
21.65 K | 14.62
22.92 K | 16.12
24.05 K | 17.45
25 K | 18.52
25.09 K | 18.62
26.05 K | 19.66
28.53 K | 21.78
30 K | 23.27
32.77 K | 26.1
34.99 K | 28.16
36.99 K | 29.91
38.82 K | 31.33
40 K | 32.27
42.09 K | 33.94
44.35 K | 35.66
46.46 K | 37.19
48.44 K | 38.2
50 K | 39.36
52.09 K | 40.68
53.8 K | 41.66
55.44 K | 42.56
57.02 K | 43.48
58.55 K | 44.32
60 K | 45.13
60.03 K | 45.14
63.79 K | 47.24
66.94 K | 48.83
69.94 K | 50.35
70 K | 50.38
72.81 K | 51.62
80 K | 55.34
82.41 K | 56.53
85.29 K | 57.82
88.14 K | 59.02
90 K | 59.86
91.01 K | 60.3
93.9 K | 61.52
96.8 K | 62.72
99.71 K | 63.94
100 K | 64.06
102.62 K | 65.39
103.2 K | 65.58
105.55 K | 66.59
107.33 K | 67.31
108.49 K | 67.79
110 K | 68.42
111.35 K | 68.99
111.43 K | 69.01
114.39 K | 70.21
115.28 K | 70.59
117.35 K | 71.41
119.12 K | 72.17
120 K | 72.49
120.32 K | 72.62
122.89 K | 73.69
123.3 K | 73.82
126.28 K | 75.05
126.6 K | 75.16
129.27 K | 76.26
130 K | 76.54
130.24 K | 76.63
132.26 K | 77.49
133.83 K | 78.06
135.26 K | 78.7
137.36 K | 79.47
138.27 K | 79.99
140 K | 80.56
140.85 K | 80.87
141.27 K | 81.11
144.27 K | 82.33
147.28 K | 83.54
147.69 K | 83.58
150 K | 84.62
150.29 K | 84.72
151.05 K | 84.88
153.31 K | 85.92
156.33 K | 87.11
159.35 K | 88.32
160 K | 88.57
162.38 K | 89.5
165.4 K | 90.68
168.43 K | 91.85
170 K | 92.45
171.47 K | 93.01
177.53 K | 95.43
180 K | 96.42
180.53 K | 96.63
183.51 K | 97.84
186.47 K | 98.95
188.91 K | 99.81
189.41 K | 100.08
190 K | 100.33
191.9 K | 101.04
192.33 K | 101.32
